In patent US11377453B2, “Crystal of compound having JAK-inhibiting activity” (NIPPON SHINYAKU CO., LTD., priority 2016, dated 2022):
Structures can show the parent of a compound that is named as a salt.

Assays:
Type in all cases: biochemical
JAK1 = target: T1, JAK1 (Homo sapiens, UniProt P23458); experiment: JAK tyrosine kinase inhibitory activity in the presence of 1 mM ATP (ELISA), JAK1
T1 construct: purchased Carna Biosciences, Inc
Method: (§1) The test compound was dissolved in dimethyl sulfoxide (DMSO) to 10 mM and further diluted with DMSO to the concentrations of 1000, 100, 10, 1, 0.1 and 0.01 μM, respectively. For JAK1, these solutions of the test compound at the six concentrations 10 mM, 1000 μM, 100 μM, 10 μM, 1 μM and 0.1 μM were used. For JAK2 and JAK3, these solutions of the test compound at the six concentrations 1000 μM, 100 μM, 10 μM, 1 μM, 0.1 μM and 0.01 μM were used. The test compound solutions were diluted further to 20-fold with an assay buffer to obtain a sample solution. 15 mM Tris-HCl (pH7.5), 0.01 (v/v) % Tween-20 and 1 mM dithiothreitol were used as an assay buffer. DMSO was diluted to 20-fold with the assay buffer and was used as a negative control.
(§2) The activity was determined by ELISA method. Each of the sample solutions was added to a streptavidin coated 96-well plate (DELFIA Strip Plate 8×12 well, PerkinElmer) at 10 μL/well (n=2). […] Finally, JAK tyrosine kinase (Carna Biosciences, Inc.), which was previously diluted with the assay buffer to 7.5 nM for JAK1 and 0.75 nM for JAK2 and JAK3, was added to the plate at 20 μL/well, and the plate was incubated at 30° C. for 1 h. The plate was washed four times with buffer (50 mM Tris-HCl (pH 7.5), 150 mM NaCl, 0.02 (v/v) % Tween-20). A blocking buffer (0.1% Bovine Serum Albumin, 50 mM Tris-HCl (pH 7.5), 150 mM NaCl, 0.02 (v/v) % Tween-20) was added to the plate at 150 μL/well, and the plate was blocked at 30° C. for 1 h. The blocking buffer was removed, and a horse radish peroxidase-labeled anti-phosphorylated tyrosine antibody (BD Biosciences, Inc.) (diluted to 10000-fold with the blocking buffer) was added to the plate at 100 μL/well, and the plate was incubated at 30° C. for 30 min. The plate was washed with the washing buffer four times, and 3,3′,5,5′-tetramethylbenzidine solution (Nacalai Tesque) was added to the plate at 100 μL/well to develop the color for 10 minutes. To the plate was added 0.1 M sulfuric acid at 100 μL/well to stop the reaction. The absorbance at 450 nm was measured using a microplate reader (BIO-RAD).

JAK2 = target: T2, JAK2 (Homo sapiens, UniProt O60674); experiment: JAK tyrosine kinase inhibitory activity in the presence of 1 mM ATP (ELISA), JAK2
T2 construct: purchased Carna Biosciences, Inc
T2 sequence (O60674 whole entry): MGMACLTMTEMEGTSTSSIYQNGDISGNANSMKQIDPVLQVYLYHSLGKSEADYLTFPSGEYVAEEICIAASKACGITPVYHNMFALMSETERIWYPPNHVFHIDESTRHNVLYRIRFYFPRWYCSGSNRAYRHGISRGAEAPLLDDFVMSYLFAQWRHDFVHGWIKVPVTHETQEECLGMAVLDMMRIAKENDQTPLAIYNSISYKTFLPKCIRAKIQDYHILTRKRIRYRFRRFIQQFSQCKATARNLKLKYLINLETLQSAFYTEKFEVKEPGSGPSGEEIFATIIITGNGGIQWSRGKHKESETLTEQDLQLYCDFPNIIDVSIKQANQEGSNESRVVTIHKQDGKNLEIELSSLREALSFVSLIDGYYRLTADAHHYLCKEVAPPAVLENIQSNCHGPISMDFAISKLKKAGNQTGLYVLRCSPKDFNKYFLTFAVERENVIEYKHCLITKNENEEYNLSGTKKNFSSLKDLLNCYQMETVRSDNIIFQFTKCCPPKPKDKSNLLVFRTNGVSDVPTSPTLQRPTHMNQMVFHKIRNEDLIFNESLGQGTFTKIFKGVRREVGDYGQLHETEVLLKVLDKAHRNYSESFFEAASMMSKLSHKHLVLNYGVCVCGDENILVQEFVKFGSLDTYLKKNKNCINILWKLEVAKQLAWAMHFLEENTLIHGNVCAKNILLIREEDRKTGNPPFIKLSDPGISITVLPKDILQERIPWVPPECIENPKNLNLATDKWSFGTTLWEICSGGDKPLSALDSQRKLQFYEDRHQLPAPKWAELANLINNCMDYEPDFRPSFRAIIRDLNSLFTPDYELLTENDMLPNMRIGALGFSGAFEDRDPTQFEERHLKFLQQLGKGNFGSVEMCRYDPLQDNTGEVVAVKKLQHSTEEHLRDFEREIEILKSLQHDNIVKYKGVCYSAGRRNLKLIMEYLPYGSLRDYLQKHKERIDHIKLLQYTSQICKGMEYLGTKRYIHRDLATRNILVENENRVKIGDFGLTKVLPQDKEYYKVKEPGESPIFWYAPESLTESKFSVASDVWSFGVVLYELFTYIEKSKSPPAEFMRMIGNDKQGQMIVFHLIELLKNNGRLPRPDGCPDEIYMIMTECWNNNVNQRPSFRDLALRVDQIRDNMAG
Method: as §1, §2

JAK3 = target: T3, JAK3 (Homo sapiens, UniProt P52333); experiment: JAK tyrosine kinase inhibitory activity in the presence of 1 mM ATP (ELISA), JAK3
T3 construct: purchased Carna Biosciences, Inc
T3 sequence (P52333 1-1124): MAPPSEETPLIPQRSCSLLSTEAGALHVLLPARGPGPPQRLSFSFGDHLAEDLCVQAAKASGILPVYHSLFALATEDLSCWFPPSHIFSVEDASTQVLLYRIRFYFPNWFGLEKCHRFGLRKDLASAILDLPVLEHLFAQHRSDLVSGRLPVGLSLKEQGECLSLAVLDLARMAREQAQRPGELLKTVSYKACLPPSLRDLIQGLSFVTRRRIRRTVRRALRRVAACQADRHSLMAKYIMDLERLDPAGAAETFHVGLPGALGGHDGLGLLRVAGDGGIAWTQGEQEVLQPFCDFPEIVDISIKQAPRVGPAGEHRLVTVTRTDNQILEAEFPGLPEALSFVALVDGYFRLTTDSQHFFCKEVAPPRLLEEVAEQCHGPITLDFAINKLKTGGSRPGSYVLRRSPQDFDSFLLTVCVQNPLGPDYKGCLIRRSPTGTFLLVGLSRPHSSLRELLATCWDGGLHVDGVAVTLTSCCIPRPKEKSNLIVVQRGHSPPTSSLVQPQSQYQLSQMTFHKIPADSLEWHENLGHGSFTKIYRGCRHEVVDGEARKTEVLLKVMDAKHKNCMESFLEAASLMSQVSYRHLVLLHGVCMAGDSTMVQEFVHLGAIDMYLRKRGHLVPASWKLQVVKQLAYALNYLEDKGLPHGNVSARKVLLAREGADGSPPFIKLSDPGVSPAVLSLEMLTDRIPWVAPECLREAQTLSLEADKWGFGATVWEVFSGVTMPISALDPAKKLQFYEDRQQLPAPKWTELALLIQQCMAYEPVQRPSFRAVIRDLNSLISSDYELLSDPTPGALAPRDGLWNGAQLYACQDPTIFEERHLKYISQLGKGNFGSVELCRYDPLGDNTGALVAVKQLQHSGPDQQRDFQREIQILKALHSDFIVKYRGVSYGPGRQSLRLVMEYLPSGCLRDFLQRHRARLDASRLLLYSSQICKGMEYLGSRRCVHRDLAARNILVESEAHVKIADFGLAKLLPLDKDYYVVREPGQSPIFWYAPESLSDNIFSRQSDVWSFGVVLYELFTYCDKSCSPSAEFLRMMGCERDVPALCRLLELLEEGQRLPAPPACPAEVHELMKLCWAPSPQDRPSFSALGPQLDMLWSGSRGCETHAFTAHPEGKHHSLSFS
Method: as §1, §2

T1 sequence (P23458 whole entry): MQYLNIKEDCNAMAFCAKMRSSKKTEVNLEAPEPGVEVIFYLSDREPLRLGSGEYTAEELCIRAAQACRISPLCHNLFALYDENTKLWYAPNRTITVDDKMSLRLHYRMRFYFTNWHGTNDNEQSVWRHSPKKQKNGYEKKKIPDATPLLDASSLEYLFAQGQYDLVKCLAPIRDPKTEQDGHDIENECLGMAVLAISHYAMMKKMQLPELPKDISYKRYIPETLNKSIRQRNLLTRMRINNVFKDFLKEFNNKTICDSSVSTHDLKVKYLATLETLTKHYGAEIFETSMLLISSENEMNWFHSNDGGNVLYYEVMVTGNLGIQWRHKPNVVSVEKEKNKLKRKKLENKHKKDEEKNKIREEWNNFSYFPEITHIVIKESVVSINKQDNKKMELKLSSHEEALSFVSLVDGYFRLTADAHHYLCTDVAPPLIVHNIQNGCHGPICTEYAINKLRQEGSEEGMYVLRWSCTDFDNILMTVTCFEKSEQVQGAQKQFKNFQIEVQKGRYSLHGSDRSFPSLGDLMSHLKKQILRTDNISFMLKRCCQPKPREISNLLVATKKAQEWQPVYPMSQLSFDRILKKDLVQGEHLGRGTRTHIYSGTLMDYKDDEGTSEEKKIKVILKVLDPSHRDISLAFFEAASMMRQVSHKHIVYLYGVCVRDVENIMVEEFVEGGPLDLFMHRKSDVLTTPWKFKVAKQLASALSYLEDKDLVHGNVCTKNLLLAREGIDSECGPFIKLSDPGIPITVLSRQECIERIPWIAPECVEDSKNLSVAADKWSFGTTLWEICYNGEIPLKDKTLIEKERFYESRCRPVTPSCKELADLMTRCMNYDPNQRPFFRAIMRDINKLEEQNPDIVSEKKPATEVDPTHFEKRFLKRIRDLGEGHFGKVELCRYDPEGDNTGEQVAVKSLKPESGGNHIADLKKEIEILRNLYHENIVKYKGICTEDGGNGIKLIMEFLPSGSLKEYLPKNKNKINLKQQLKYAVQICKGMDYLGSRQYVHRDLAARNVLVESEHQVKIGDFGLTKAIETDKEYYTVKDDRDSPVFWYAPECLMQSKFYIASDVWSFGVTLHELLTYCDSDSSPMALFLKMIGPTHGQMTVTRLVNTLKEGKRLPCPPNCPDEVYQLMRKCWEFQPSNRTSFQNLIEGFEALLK

IC50 (JAK1) [nM]	IC50 (JAK2) [nM]	IC50 (JAK3) [nM]	SMILES
310	3700	3000	CC[C@H](C)Nc1cc(C(=O)N2CCC(NC(=O)OC)CC2)nc(-c2cnn3ccsc23)n1 [Example 1, Methyl [1-({6-[(2S)-butan-2-ylamino]-2-(pyrazolo [5,1-b][1,3]thiazol-7-yl)pyrimidin-4-yl}carbonyl)piperidin-4-yl]carbamate Tosylate Monohydrate]
470	5700	6000	CC[C@@H](C)Nc1cc(C(=O)N2CCC(NC(=O)OC)CC2)nc(-c2cnn3ccsc23)n1 [Example 2, Methyl [1-({6-[(2R)-butan-2-ylamino]-2-(pyrazolo[5,1-b][1,3]thiazol-7-yl)pyrimidin-4-yl}carbonyl)piperidin-4-yl]carbamate Tosylate Monohydrate]
270	2600	1900	COC(=O)NC1CCN(C(=O)c2cc(N[C@@H](C)C3CC3)nc(-c3cnn4ccsc34)n2)CC1 [Example 3, Methyl (1-{[6-{[(1S)-1-cyclopropylethyl]amino}-2-(pyrazolo[5,1-b][1,3]thiazol-7-yl)pyrimidin-4-yl]carbonyl}piperidin-4-yl)carbamate Tosylate Monohydrate]
